From PubChem BioAssay (NCI)
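Results reflect a 48-hour exposure of cells in 96-well plates to compound at five concentrations. GI50 = concentration required for 50% inhibition of growth. Definition used: TGI = concentration required for complete inhibition of growth.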

What was measured:
Test in all cases: DTP human tumour cell line panel, 48 h
TK-10 renal = tested on: TK-10 renal
K-562 leukemia = tested on: K-562 leukemia
NCI/ADR-RES ovarian = tested on: NCI/ADR-RES ovarian
CCRF-CEM leukemia = tested on: CCRF-CEM leukemia
NCI-H23 lung = tested on: NCI-H23 lung
RPMI-8226 leukemia = tested on: RPMI-8226 leukemia
DU-145 prostate = tested on: DU-145 prostate
COLO 205 colon = tested on: COLO 205 colon
SR leukemia = tested on: SR leukemia
UACC-257 melanoma = tested on: UACC-257 melanoma

SMILES	GI50 (TK-10 renal)	TGI (TK-10 renal)	GI50 (K-562 leukemia)	TGI (K-562 leukemia)	GI50 (NCI/ADR-RES ovarian)	TGI (NCI/ADR-RES ovarian)	GI50 (CCRF-CEM leukemia)	TGI (CCRF-CEM leukemia)	GI50 (NCI-H23 lung)	TGI (NCI-H23 lung)	GI50 (RPMI-8226 leukemia)	TGI (RPMI-8226 leukemia)	GI50 (DU-145 prostate)	TGI (DU-145 prostate)	GI50 (COLO 205 colon)	TGI (COLO 205 colon)	GI50 (SR leukemia)	TGI (SR leukemia)	GI50 (UACC-257 melanoma)	TGI (UACC-257 melanoma)
COc1cc2ncc3c(nc4sccn43)c2cc1OC	11.1 µM	29.5 µM	31.6 µM	> 100 µM	93.3 µM	> 100 µM	46.4 µM	> 100 µM	80.4 µM	> 100 µM	26.4 µM	89 µM	28 µM	> 100 µM	38.2 µM	> 100 µM	12.4 µM	41.7 µM	43.8 µM	> 100 µM
COc1ccc2c(c1)C(=O)c1c-2c(OCCN(C)C)nc2ccccc12	7.56 µM	20.8 µM	1.6 µM	10.3 µM	3.05 µM	14.5 µM	0.825 µM	10.4 µM	3.8 µM	16.7 µM	2.85 µM	13.9 µM	2.91 µM	9 µM	1.83 µM	10.1 µM	0.998 µM	6.76 µM	3.06 µM	10.9 µM
O=C(NNS(=O)(=O)c1ccc(Cl)cc1Cl)c1cccnc1Nc1ccc(Cl)cc1	28.9 µM	84.3 µM	12.9 µM	25.6 µM	23.4 µM	76.5 µM	6.62 µM	> 100 µM	17.3 µM	42.6 µM	17.7 µM	53.2 µM	41.8 µM	> 100 µM	12.1 µM	24.4 µM	14.8 µM	38.1 µM	22.9 µM	60.5 µM
CNNC(=NS(=O)(=O)c1cc(C#N)c(NNC)cc1S)NNC	–	> 10 µM	–	> 10 µM	–	> 10 µM	–	> 10 µM	–	> 10 µM	–	> 10 µM	–	> 10 µM	–	> 10 µM	–	> 10 µM	–	> 10 µM
Cc1cc(C)c(C2CNCc3cc4c(cc32)CNCC4c2c(C)cc(C)cc2C)c(C)c1 (stereo not drawn)	3.22 µg/mL	26.9 µg/mL	1.1 µg/mL	3.22 µg/mL	6.38 µg/mL	19.5 µg/mL	1.86 µg/mL	5.07 µg/mL	15.9 µg/mL	30.4 µg/mL	2.25 µg/mL	6.92 µg/mL	7.21 µg/mL	19.8 µg/mL	2.63 µg/mL	7.49 µg/mL	0.303 µg/mL	1 µg/mL	1.83 µg/mL	4.27 µg/mL
CC(=O)O[C@@H]1C[C@@]2(C)[C@@H]3CC=C4[C@@H](C[C@H](O)C(=O)C4(C)C)[C@]3(C)C(=O)C[C@]2(C)[C@H]1[C@@](C)(O)C(=O)/C=C/C(C)(C)OC(C)=O	–	> 37.8 µM	–	> 100 µM	–	43.8 µM	–	> 69.2 µM	–	24.1 µM	–	> 32.2 µM	–	34.1 µM	–	> 39.7 µM	–	> 53.4 µM	–	50.4 µM
Nc1nc(N)c(CCCCc2ccccc2)c(N)n1	–	> 100 µM	–	> 100 µM	–	> 100 µM	–	> 100 µM	–	> 100 µM	–	> 100 µM	–	> 100 µM	–	> 100 µM	–	> 100 µM	–	> 100 µM
CCc1c(C)nc2sc3c(N)ncnc3c2c1C	> 25 µM	> 25 µM	> 25 µM	> 25 µM	> 25 µM	> 25 µM	> 25 µM	> 25 µM	> 25 µM	> 25 µM	> 25 µM	> 25 µM	> 25 µM	> 25 µM	> 25 µM	> 25 µM	> 25 µM	> 25 µM	> 25 µM	> 25 µM
CC1c2ccccc2CCN1c1ccc(CO)c(Cl)c1 (stereo not drawn)	0.0346 µM	0.187 µM	0.385 µM	> 100 µM	13.1 µM	50.5 µM	30.9 µM	> 100 µM	21.8 µM	> 72.3 µM	1.94 µM	47.5 µM	11.6 µM	> 53 µM	0.19 µM	0.626 µM	28.3 µM	> 85.9 µM	0.0412 µM	0.191 µM
Cc1ccncc1C(N)=O	> 100 µM	> 100 µM	> 100 µM	> 100 µM	> 100 µM	> 100 µM	> 100 µM	> 100 µM	> 100 µM	> 100 µM	> 100 µM	> 100 µM	> 100 µM	> 100 µM	> 100 µM	> 100 µM	> 100 µM	> 100 µM	> 100 µM	> 100 µM
Oc1c(-c2cc(C(F)(F)F)[nH]n2)cc(Cl)c(OCc2ccc(Cl)cc2)c1-c1ccc(Cl)c(C(F)(F)F)c1	0.56 µM	5.28 µM	0.126 µM	6.81 µM	0.221 µM	5.82 µM	0.192 µM	4.77 µM	0.265 µM	4.06 µM	0.204 µM	1.19 µM	1.15 µM	6.39 µM	0.867 µM	1.79 µM	0.256 µM	2.99 µM	1.12 µM	3.59 µM
NNc1nnc(-c2nnc(NN)o2)o1	–	> 10 µM	–	> 10 µM	–	> 10 µM	–	> 10 µM	–	> 10 µM	–	> 10 µM	–	> 10 µM	–	> 10 µM	–	> 10 µM	–	> 10 µM
O=Nc1c(-c2c(O)[nH]c3ncccc23)[nH]c2ccccc12	5.52 µM	> 100 µM	–	> 100 µM	> 100 µM	> 100 µM	5.07 µM	> 100 µM	> 100 µM	> 100 µM	–	> 79 µM	> 23.9 µM	> 100 µM	28.4 µM	> 100 µM	0.274 µM	> 100 µM	> 100 µM	> 100 µM
